Literature values as cited in patent US20260137642A1 (CANCER PREVENTION PHARMACEUTICALS, INC., priority 2021, published 2026).

Assays:
[1] = in vivo; cited from earlier work
[2] = phase II study; cited from earlier work
[3] = cited from earlier work
[4] = cited from earlier work; remark: listed apart in the source

Cc1ccc(-c2cc(C(F)(F)F)nn2-c2ccc(S(N)(=O)=O)cc2)cc1 [Celecoxib, 4-[5-(4-Methylphenyl)-3-(trifluoromethyl)pyrazol-1-yl]benzenesulfonamide]
Increase in rates of heart and blood vessel disease [1]: 30% | Risk of gastrointestinal side effects [1]: greater than 80%

CCNCCCNCCCNCCCNCC [DENSPM]
Tolerability [2]: well-tolerated

CC1=C(CC(=O)O)c2cc(F)ccc2/C1=C\c1ccc([S+](C)[O-])cc1 (centres unmarked) [Sulindac, (Z)-5-fluoro-2-methyl-1-((4-(methylsulfinyl)phenyl)methylene)-1H-indene-3-acetic acid]
Fraction of the drug absorbed ([3]; after oral administration): about 90% | Time to peak plasma levels ([3]; fasting patients): about 2 hours | Patients with mild gastrointestinal effects ([4]; abdominal pain and nausea most frequent): ~20% | Patients with skin rash and pruritus ([4]; human, in vivo): 5%

CSc1ccc(/C=C2/C(C)=C(CC(=O)O)c3cc(F)ccc32)cc1 [sulfide metabolite]
Mean half-life ([3]; in vivo): 16.4 h
